From patent US20240125678A1, “COMPOUND, CELLULAR VESICLE STAIN, AND METHOD FOR FLUORESCENT STAINING OF CELLULAR VESICLES” (National University Corporation Tokai National Higher …, priority 2021, published 2024)

What was measured:
[1] = tested on: cellular vesicles of mouse malignant melanoma cells B16F10; experiment: Fluorescent staining of intracellular vesicles with Compound 1 and anti-CD63 antibody; type: cell-based
[2] = tested on: cellular vesicles / autophagosomes of B16F10 cells; experiment: Detection of autophagosomes using a PIKfyve inhibitor; type: cell-based, mouse; conditions: 3 μM
Procedure: An endosome-derived intracellular vesicle formation inhibitor (PIKfyve inhibitor) was used to detect autophagosomes. The procedure is illustrated below. • (1) 3×10^4 of B16F10 cells were plated in a glass bottom dish and cultured for 24 hours. • (2) Compound 1 was added to have the final concentration of 3 μM. • (3) Measurement was performed by using a fluorescence microscope. Note that the measurement was performed with excitation at 470 nm. • (4) PIKfyve inhibitor (HY-13228 (MedChemExpress)) was then added to the culture medium to have the final concentration of 10 μM, which was cultured for 1 hour. • (5) Measurement was performed by using the fluorescence microscope. • (6) PIKfyve inhibitor-containing culture medium was aspirated off, and washing operation was performed twice with a new culture medium, which was cultured with another new culture medium for 3 hours. • (7) Measurement was performed by using the fluorescence microscope.

[3] = tested on: cellular vesicles of HEK293 cells; experiment: Fluorescent staining of cellular vesicles in HEK293 cells; type: cell-based, human; conditions: 0.3 μM, excitation 470 nm
Procedure: (§1) Compound 1 was used to fluorescently stain cellular vesicles of HEK293 cells. The procedure is illustrated below. • (1) HEK293A cells (ThermoFisher) were plated in a glass bottom dish and cultured for 24 hours. […] Note that the measurement was performed with excitation at 470 nm.

[4] = tested on: cellular vesicles of keratinocyte cells (PSVK1); experiment: Fluorescent staining of cellular vesicles in keratinocyte cells (PSVK1); type: cell-based, human; conditions: 0.3 μM, excitation 470 nm
Procedure: as §1, with “keratinocyte cells (PSVK1).” for “HEK293 cells.”, “PSVK1” for “HEK293A”, “(obtained from National Institute of Biomedical Innovation, Health and Nutrition, Cell Bank)” for “(ThermoFisher)”

[5] = tested on: cellular vesicles of living B16F10 cells; experiment: Specificity 1: staining of cellular vesicles of living versus fixed (dead) cells; type: cell-based, mouse; conditions: B16F10, 0.3 μM, mixed fixed (dead) and living cells
[6] = tested on: cellular vesicles of B16F10 cells; experiment: Specificity 2: comparison with another cellular vesicle staining agent; type: cell-based, mouse; conditions: Compound 1 3 μM without washing, ExoSparkler Mem Dye-Red 1 μL/mL with washing
Procedure: Compound 1 was used for fluorescent staining of intracellular vesicles. The procedure is illustrated below. • (1) 3×10^4 of B16F10 cells were plated in a glass bottom dish and cultured for 24 hours. • (2) Compound 1 was added to the culture medium to have the final concentration of 3 μM. • (3) Measurement was performed by using the fluorescence microscope. Note that the measurement was performed with excitation at 470 nm.
Comparative example 1 is the same as Example 18 except that, instead of Compound 1, 1 μL/mL of ExoSparkler Mem Dye-Red (340-09671 (Dojindo Laboratories)) was added to the culture medium, the culture medium was aspirated off after the addition of ExoSparkler Mem Dye-Red, and a new culture medium was added for washing. Note that the measurement was performed with excitation at 540 nm.

[7] = tested on: cellular vesicles of B16F10 cells; experiment: Specificity 3: staining in the presence of foreign substances (mouse dung); type: cell-based; conditions: B16F10 cells mixed with mouse dung suspension; Compound 1 0.3 μM; CellMask reagent 1 μL
Procedure: Intracellular vesicles were fluorescently stained by Compound 1 in the presence of foreign substances. The procedure is illustrated below. • (1) 100 mg of mouse dung was collected, and the collected dung was suspended in 10-fold volume (1 mL) of phosphate buffer. • (2) B16F10 cells were detached using trypsin EDTA (NACALAI TESQUE) and collected, and 1×10^4 cells were suspended in 100 μL of phosphate buffer and mixed with 10 μL of the mouse dung suspension of (1) . • (3) The suspension of the cells and the […] was spread on a glass bottom dish, and 300 μM of Compound 1 was added to have the final concentration of 0.3 μM. • (4) Measurement was performed by using the fluorescence microscope. Note that the measurement was performed with excitation at 470 nm.
Comparative example 2 is the same as Example 19 except that, instead of Compound 1, 1 μL of CellMask reagent (C10045 (ThermoFisher)) was added to the suspension of the cells and the dung. Note that the measurement was performed with excitation at 540 nm.

milk exosomes [8] = experiment: Fluorescent staining of exosomes; conditions: 0.3 μM in phosphate buffer
milk exosomes [9] = experiment: Calibration curve in exosome detection; conditions: 0.3 μM, milk exosomes 0.1 to 1 ng per well, fetal bovine serum/phosphate buffer
[10] = tested on: labeled milk exosomes in HEK293A cells; experiment: Incorporation of labeled exosomes into cells; type: cell-based, human
[11] = tested on: incorporation of labeled melanosomes into keratinocyte cells; experiment: Inhibition of incorporation of labeled melanosomes into cells; type: cell-based; conditions: inhibitor final concentration 10 μM, 12 hours, melanosomes labeled with Compound 1, excitation 488 nm
Procedure: Incorporation of melanosomes into cells was measured in the presence of a melanosome uptake inhibitor. […] As the melanosome uptake inhibitor, 6-shogaol (192-16161 (Fujifilm Wako)) was used. • (13) After 12 hours, the cells were washed twice with 100 μL of phosphate buffer. • (14) A plate reader (GroMax Multi (Promega)) was used to measure the labeled melanosomes. […]
Comparative Example 4 is the same as Example 29 except that the measurement with the plate reader was performed for absorbance at 450 nm.

SMILES | overlap of compound fluorescence with fluorescence of the antibody conjugated with CD63 ([1]; 0.3 μM, fixed, anti-CD63 antibody excited at 540 nm) | fluorescent staining of cellular vesicles ([1]; final concentration 0.3 μM, 5 minutes, excitation 470 nm) | fluorescent staining of PIKfyve dependent cellular vesicles ([2]; before/after PIKfyve inhibitor 10 μM 1 hour) | fluorescent staining of autophagosome membrane ([2]; cultured 3 hours after removal of PIKfyve inhibitor) | fluorescent staining of cellular vesicle of HEK293 cell [3] | fluorescent staining of cellular vesicle of PSVK1 cell [4] | staining of cellular vesicles of living cells versus dead cells [5] | specificity of fluorescent staining to cellular vesicles [6] | specificity of fluorescent staining in the presence of foreign substances [7] | fluorescence with milk exosomes added (milk exosomes [8]; 10 ng milk exosomes, excitation 302 nm) | fluorescence without milk exosomes (Comparative example 3) (milk exosomes [8]; no milk exosome added) | fluorescence intensity versus amount of added milk exosomes (milk exosomes [9]) | incorporation of exosomes labeled with the compound into cells ([10]; HEK293A cells, 12 hours after addition) | conjugation with exosomes (overlap with ExoSparkler Mem Dye-Red fluorescence) ([10]; milk exosomes stained 5 minutes with 0.3 μM) | incorporation of labeled melanosomes into keratinocyte cells [11]
CN(C)c1ccc(CCCN(C)C2CCc3cc(OCCNc4ccc([N+](=O)[O-])c5nonc45)ccc32)cc1 (stereo not drawn) [Compound 1] | overlap each other | can fluorescently stain cellular vesicles | can also fluorescently stain the PIKfyve dependent cellular vesicles | the autophagosome membrane enclosing the melanosome was fluorescently stained | can fluorescently stain | can fluorescently stain | fluorescently stains cellular vesicles of living cells | high specificity to cellular vesicles | can specifically fluorescently stain cellular vesicles | conjugates with exosomes that are cellular vesicles and emits fluorescence | no fluorescence was emitted | the fluorescence intensity increased depending on the amount of externally added milk exosomes | are incorporated into cells | specifically conjugates with the exosomes | 
CCCCC/C=C/C(=O)CCc1ccc(O)c(OC)c1 [melanosome uptake inhibitor, 6-shogaol] |  |  |  |  |  |  |  |  |  |  |  |  |  |  | incorporation of the labeled melanosomes into keratinocyte cells is inhibited
